From US20060249167A1, “Flavor ingredients for cooling preparations” (priority 2003, published 2006)

Columns and labels:
[1] = Organoleptic (odor and flavor) description of the compound and its isomers; details: in vivo

Compound: CC1CCC(C(C)C)C2(C1)OC(=O)C(C)O2 (stereo not shown) [Compound (I), 6-isopropyl-3,9-dimethyl-1,4-dioxaspiro[4.5]decan-2-one]
- flavor [1]: minty, fresh, piperita type
- odor [1]: minty, menthone type odor

Compound: CC(C)[C@@H]1CC[C@@H](C)CC12OC(=O)[C@H](C)O2 (stereo partly drawn) [Compound of example 1a, (3S, 6S, 9R)-6-isopropyl-3,9-dimethyl-1,4-dioxaspiro[4.5]decan-2-one]
- flavor [1]: interesting minty note with refreshing effect

Compound: CC(C)[C@@H]1CC[C@@H](C)C[C@@]12OC(=O)[C@H](C)O2 [Compound of example 1b, (3S, 5R, 6S, 9R)-6-isopropyl-3,9-dimethyl-1,4-dioxaspiro[4.5]decan-2-one]
- flavor [1]: more of the cooling type with a minty connotation
- flavor ([1]; listed as (3S,5R,6S,9R) isomer): stronger and more lingering effect

Compound: CC(C)[C@@H]1CC[C@@H](C)C[C@]12OC(=O)[C@H](C)O2 [Compound of example 1c, (3S, 5S, 6S, 9R)-6-isopropyl-3,9-dimethyl-1,4-dioxaspiro[4.5]decan-2-one]
- flavor [1]: more of the cooling type with a minty connotation
- melting point: 33 to 34 °C
